Experimental data published in US12269831B2, “Modulators of cystic fibrosis transmembrane conductance regulator” (Vertex Pharmaceuticals Incorporated, priority 2020, dated 2025).

Target: T1, CFTR (F508del/MF-HBE cells) (Homo sapiens, UniProt P13569, DEL508-508)
T1 construct: human bronchial epithelial (HBE) cells derived from CF subjects heterozygous for F508del and a minimal function CFTR mutation (F508del/MF-HBE); endogenous in cells; host or cells: primary human bronchial epithelial (HBE) cells from CF subjects, genotype F508del/minimal function
T1 sequence (P13569 with tags, fused parts or gaps DEL508-508): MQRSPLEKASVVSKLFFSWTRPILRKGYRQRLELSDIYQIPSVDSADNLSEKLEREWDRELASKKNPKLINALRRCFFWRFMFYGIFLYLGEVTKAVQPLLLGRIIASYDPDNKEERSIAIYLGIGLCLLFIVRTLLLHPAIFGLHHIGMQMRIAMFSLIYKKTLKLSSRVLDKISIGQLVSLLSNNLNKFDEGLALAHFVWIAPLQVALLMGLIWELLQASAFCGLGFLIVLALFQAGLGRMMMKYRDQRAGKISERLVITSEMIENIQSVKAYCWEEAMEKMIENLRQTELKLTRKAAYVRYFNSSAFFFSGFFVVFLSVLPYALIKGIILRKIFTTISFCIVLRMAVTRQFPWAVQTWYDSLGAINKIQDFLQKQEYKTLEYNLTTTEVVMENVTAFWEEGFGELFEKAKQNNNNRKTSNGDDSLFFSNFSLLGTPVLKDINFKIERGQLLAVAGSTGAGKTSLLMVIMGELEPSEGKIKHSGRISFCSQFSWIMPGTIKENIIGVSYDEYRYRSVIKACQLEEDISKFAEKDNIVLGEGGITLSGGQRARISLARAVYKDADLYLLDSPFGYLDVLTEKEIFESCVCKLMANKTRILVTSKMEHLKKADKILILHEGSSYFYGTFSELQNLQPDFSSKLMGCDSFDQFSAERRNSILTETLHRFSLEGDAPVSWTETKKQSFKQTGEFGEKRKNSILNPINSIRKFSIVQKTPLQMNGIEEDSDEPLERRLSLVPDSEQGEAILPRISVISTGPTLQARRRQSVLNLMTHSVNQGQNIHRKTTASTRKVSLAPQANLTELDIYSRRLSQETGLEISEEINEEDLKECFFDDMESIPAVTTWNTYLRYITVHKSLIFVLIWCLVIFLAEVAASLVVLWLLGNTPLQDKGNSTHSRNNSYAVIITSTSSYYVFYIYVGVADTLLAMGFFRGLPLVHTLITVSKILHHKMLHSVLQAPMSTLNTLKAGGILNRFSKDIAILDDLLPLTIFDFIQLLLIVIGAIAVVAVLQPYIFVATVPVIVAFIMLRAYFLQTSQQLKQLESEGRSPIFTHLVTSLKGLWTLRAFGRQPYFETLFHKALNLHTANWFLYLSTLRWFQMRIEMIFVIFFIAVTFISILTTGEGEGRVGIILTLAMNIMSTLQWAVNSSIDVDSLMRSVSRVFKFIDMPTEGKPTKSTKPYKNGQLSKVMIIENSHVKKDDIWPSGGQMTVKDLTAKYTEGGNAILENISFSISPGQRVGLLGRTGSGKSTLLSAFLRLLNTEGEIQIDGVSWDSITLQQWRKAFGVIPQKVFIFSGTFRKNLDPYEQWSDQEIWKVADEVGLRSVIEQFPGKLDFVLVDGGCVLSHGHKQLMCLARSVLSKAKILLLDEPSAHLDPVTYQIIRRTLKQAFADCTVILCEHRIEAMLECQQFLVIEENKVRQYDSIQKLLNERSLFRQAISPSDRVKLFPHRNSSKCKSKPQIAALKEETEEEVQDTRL
Experiment: Ussing chamber assay of CFTR-mediated short-circuit currents (potentiator identification)
Format: cell-based
Settings: CFTR-mediated Isc, 18-24 h incubation at 37° C. with 10 μM (14S)-8-[3-(2-{dispiro[2.0.2.1]heptan-7-yl}ethoxy)-1H-pyrazol-1-yl]-... corrector, 20% human serum
Description: Ussing Chamber Assay of CFTR-Mediated Short-Circuit Currents
Ussing chamber experiments were performed using human bronchial epithelial (HBE) cells derived from CF subjects heterozygous for F508del and a minimal function CFTR mutation (F508del/MF-HBE) and cultured as previously described (Neuberger T, Burton B, Clark H, Van Goor F Methods Mol Biol 2011:741:39-54). After four days the apical media was removed, and the cells were grown at an air liquid interface for >14 days prior to use.
To isolate the CFTR-mediated short-circuit (Isc) current, F508del/MF-HBE grown on Costar® Snapwell™ cell culture inserts were mounted in an Ussing chamber and the transepithelial ISC was measured under voltage-clamp recording conditions (Vhold=0 mV) at 37° C. The basolateral solution contained (in mM) 145 NaCl, 0.83 K2HPO4, 3.3 KH2PO4, 1.2 MgCl2, 1.2 CaCl2, 10 Glucose, 10 HEPES (pH adjusted to 7.4 with NaOH) and the apical solution contained (in mM) 145 NaGluconate, 1.2 MgCl2, 1.2 CaCl2, 10 glucose, 10 HEPES (pH adjusted to 7.4 with NaOH) and 30 μM amiloride to block the epithelial sodium channel. Forskolin (20 μM) was added to the apical surface to activate CFTR, followed by apical addition of a CFTR inhibitor cocktail consisting of BPO, GlyH-101 and CFTR inhibitor 172 (each at 20 μM final assay concentration) to specifically isolate CFTR currents. The CFTR-mediated Isc (μA/cm^2) for each condition was determined from the peak forskolin response to the steady-state current following inhibition.
Identification of Potentiator Compounds
The activity of the CFTR potentiator compounds on the CFTR-mediated Isc was determined in Ussing chamber studies as described above. The F508del/MF-HBE cell cultures were incubated with the potentiator compounds at a range of concentrations in combination with 10 μM (14S)-8-[3-(2-{dispiro[2.0.2.1]heptan-7-yl}ethoxy)-1H-pyrazol-1-yl]-12,12-dimethyl-2λ^6-thia-3,9,11,18,23-pentaazatetracyclo[17.3.1.111,14.05,10]tetracosa-1(22),5,7,9,19(23),20-hexaene-2,2,4-trione for 18-24 hours at 37° C. and in the presence of 20% human serum. The concentration of potentiator compounds and (14S)-8-[3-(2-{dispiro[2.0.2.1]heptan-7-yl}ethoxy)-1H-pyrazol-1-yl]-12,12-dimethyl-2λ^6-thia-3,9,11,18,23-pentaazatetracyclo[17.3.1.111,14.05,10]tetracosa-1(22),5,7,9,19(23),20-hexaene-2,2,4-trione used during the 18-24 hours incubations was kept constant throughout the Ussing chamber measurement of the CFTR-mediated Isc to ensure compounds were present throughout the entire experiment. The efficacy and potency of the putative F508del potentiators was compared to that of the known Vertex potentiator, ivacaftor (N-[2,4-bis(1,1-dimethylethyl)-5-hydroxyphenyl]-1,4-dihydro-4-oxoquinoline-3-carboxamide).

| SMILES | EC50 [nM] |
| --- | --- |
| Nc1cc(C(F)(F)F)c2nc1-c1nnc(o1)[C@@](O)(C(F)(F)F)CCCCCCO2 [Compound 5, (6R)-17-amino-6,15-bis(trifluoromethyl)-13,19-dioxa-3,4,18-triazatricyclo[12.3.1.12,5]nonadeca-1(18),2,4,14,16-pentaen-6-ol] | < 500 |
| Nc1cc(C(F)(F)F)c2nc1-c1nnc(o1)[C@](O)(C(F)(F)F)CCCCCCO2 [Compound 6, (6S)-17-amino-6,15-bis(trifluoromethyl)-13,19-dioxa-3,4,18-triazatricyclo[12.3.1.12,5]nonadeca-1(18),2,4,14,16-pentaen-6-ol] | > 1000 |
| CC1CCCCCC(O)(C(F)(F)F)C2=NN=C(O2)c2nc(c(C(F)(F)F)cc2N)O1 (stereo not drawn) [Compound 7, 17-amino-12-methyl-6,15-bis(trifluoromethyl)-13,19-dioxa-3,4,18-triazatricyclo[12.3.1.12,5]nonadeca-1(18),2,4,14,16-pentaen-6-ol] | < 500 |
| CC1CCCCCC(O)(C(F)(F)F)C2=NN=C(O2)c2nc(c(C(F)(F)F)cc2N)O1 (stereo not drawn) [Compound 8, 17-amino-12-methyl-6,15-bis(trifluoromethyl)-13,19-dioxa-3,4,18-triazatricyclo[12.3.1.12,5]nonadeca-1(18),2,4,14,16-pentaen-6-ol] | < 500 |
| C[C@@H]1CCCCC[C@](O)(C(F)(F)F)C2=NN=C(O2)c2nc(c(C(F)(F)F)cc2N)O1 [Compound 11, (6R,12R)-17-amino-12-methyl-6,15-bis(trifluoromethyl)-13,19-dioxa-3,4,18-triazatricyclo[12.3.1.12,5]nonadeca-1(18),2,4,14,16-pentaen-6-ol] | < 500 |
| C[C@@H]1CCCCC[C@@](O)(C(F)(F)F)C2=NN=C(O2)c2nc(c(C(F)(F)F)cc2N)O1 [Compound 12, (6S,12R)-17-Amino-12-methyl-6,15-bis(trifluoromethyl)-13,19-dioxa-3,4,18-triazatricyclo[12.3.1.12,5]nonadeca-1(18),2,4,14,16-pentaen-6-ol] | < 500 |
| C[C@H]1CCCCC[C@@](O)(C(F)(F)F)C2=NN=C(O2)c2nc(c(C(F)(F)F)cc2N)O1 [Compound 13, (6S,12S)-17-amino-12-methyl-6,15-bis(trifluoromethyl)-13,19-dioxa-3,4,18-triazatricyclo[12.3.1.12,5]nonadeca-1(18),2,4,14,16-pentaen-6-ol] | < 500 |
| C[C@H]1CCCCC[C@](O)(C(F)(F)F)C2=NN=C(O2)c2nc(c(C(F)(F)F)cc2N)O1 [Compound 14, (6R,12S)-17-amino-12-methyl-6,15-bis(trifluoromethyl)-13,19-dioxa-3,4,18-triazatricyclo[12.3.1.12,5]nonadeca-1(18),2,4,14,16-pentaen-6-ol] | < 500 |
| Nc1cc(C(F)(F)F)c2nc1-c1nnc(o1)C(O)(C(F)(F)F)CCCCc1ccccc1O2 (stereo not drawn) [Compound 17, 21-amino-6,19-bis(trifluoromethyl)-17,23-dioxa-3,4,22-triazatetracyclo[16.3.1.12,5.011,16]tricosa-1(22),2,4,11(16),12,14,18,20-octaen-6-ol] | < 500 |
| C[C@@H]1CCCc2ccc(F)c(c2)C(O)(C(F)(F)F)C2=NN=C(O2)c2nc(c(C(F)(F)F)cc2N)O1 (stereo partly drawn) [Compound 18, (15R)-20-amino-8-fluoro-15-methyl-6,18-bis(trifluoromethyl)-16,23-dioxa-3,4,21-triazatetracyclo[15.3.1.12,5.17,11]tricosa-1(21),2,4,7(22),8,10,17,19-octaen-6-ol] | < 500 |
| Nc1cc(C(F)(F)F)c2nc1-c1nnc(o1)[C@@](O)(C(F)(F)F)CCCCCC[S@+]2[O-] [Compound 19, (6R,13S)-17-Amino-13-oxido-6,15-bis(trifluoromethyl)-19-oxa-13-thionia-3,4,18-triazatricyclo[12.3.1.12,5]nonadeca-1(18),2,4,14,16-pentaen-6-ol] | < 500 |

The next lines start with the values.

| EC50 [nM] | SMILES |
| --- | --- |
| < 500 | C[C@@H]1CCCCC(O)C(O)(C(F)(F)F)C2=NN=C(O2)c2nc(c(C(F)(F)F)cc2N)O1 (single isomer, unassigned) [Compound 57] |
| < 500 | C[C@@H]1CCCCC(O)C(O)(C(F)(F)F)C2=NN=C(O2)c2nc(c(C(F)(F)F)cc2N)O1 (single isomer, unassigned) [Compound 62] |
| < 500 | C[C@@H]1CC2CC2CC[C@](O)(C(F)(F)F)C2=NN=C(O2)c2nc(c(C(F)(F)F)cc2N)O1 (single isomer, unassigned) [Compound 63] |
| < 500 | C[C@@H]1CC2CC2CC[C@](O)(C(F)(F)F)C2=NN=C(O2)c2nc(c(C(F)(F)F)cc2N)O1 (single isomer, unassigned) [Compound 64] |
| 500 to 1000 | Nc1cc(C(F)(F)F)c2nc1-c1nnc(o1)[C@@](O)(C(F)(F)F)CCCCCC[S@@+]2[O-] [Compound 20, (6R,13R)-17-amino-13-oxido-6,15-bis(trifluoromethyl)-19-oxa-13-thionia-3,4,18-triazatricyclo[12.3.1.12,5]nonadeca-1(18),2,4,14,16-pentaen-6-ol] |
| < 500 | Nc1cc(C(F)(F)F)c2nc1-c1nnc(o1)[C@@](O)(C(F)(F)F)CCCCCCS2 [Compound 21, (6R)-17-Amino-6,15-bis(trifluoromethyl)-19-oxa-13-thia-3,4,18-triazatricyclo[12.3.1.12,5]nonadeca-1(18),2,4,14,16-pentaen-6-ol] |
| < 500 | Nc1cc(C(F)(F)F)c2nc1-c1nnc(o1)[C@@](O)(C(F)(F)F)CCCCCS2 [Compound 22, (6R)-16-amino-6,14-bis(trifluoromethyl)-18-oxa-12-thia-3,4,17-triazatricyclo[11.3.1.12,5]octadeca-1(17),2,4,13,15-pentaen-6-ol] |
| > 1000 | C[C@@H]1CC(=O)CCC[C@](O)(C(F)(F)F)C2=NN=C(O2)c2nc(c(C(F)(F)F)cc2N)O1 [Compound 25, (6R,12R)-17-amino-6-hydroxy-12-methyl-6,15-bis(trifluoromethyl)-13,19-dioxa-3,4,18-triazatricyclo[12.3.1.12,5]nonadeca-1(18),2,4,14,16-pentaen-10-one] |
| < 500 | C[C@@H]1CCC(=O)CC[C@](O)(C(F)(F)F)C2=NN=C(O2)c2nc(c(C(F)(F)F)cc2N)O1 [Compound 26, (6R,12R)-17-amino-6-hydroxy-12-methyl-6,15-bis(trifluoromethyl)-13,19-dioxa-3,4,18-triazatricyclo[12.3.1.12,5]nonadeca-1(18),2,4,14,16-pentaen-9-one] |
| < 500 | CC1CCC(O)(C(F)(F)F)C2=NN=C(O2)c2nc(c(C(F)(F)F)cc2N)Oc2cccc1c2 (stereo not drawn) [Compound 29, 19-amino-9-methyl-6,17-bis(trifluoromethyl)-15,22-dioxa-3,4,20-triazatetracyclo[14.3.1.12,5.110,14]docosa-1(20),2,4,10(21),11,13,16,18-octaen-6-ol] |
| < 500 | Nc1cc(C(F)(F)F)c2nc1-c1nnc(o1)[C@@](O)(C(F)(F)F)CCCCC[C@H](CO)O2 [Compound 36, (6R,12R)-17-amino-12-(hydroxymethyl)-6,15-bis(trifluoromethyl)-13,19-dioxa-3,4,18-triazatricyclo[12.3.1.12,5]nonadeca-1(18),2,4,14,16-pentaen-6-ol] |
| < 500 | Nc1cc(C(F)(F)F)c2nc1-c1nnc(o1)[C@@](O)(C(F)(F)F)CCCCC[C@@H](CO)O2 [Compound 37, (6R,12S)-17-amino-12-(hydroxymethyl)-6,15-bis(trifluoromethyl)-13,19-dioxa-3,4,18-triazatricyclo[12.3.1.12,5]nonadeca-1(18),2,4,14,16-pentaen-6-ol] |
| < 500 | [2H]C1CC[C@](O)(C(F)(F)F)C2=NN=C(O2)c2nc(c(C(F)(F)F)cc2N)O[C@H](C)CC1[2H] (stereo partly drawn) [Compound 38, (6R,12R)-17-amino-9,10-dideuterio-12-methyl-6,15-bis(trifluoromethyl)-13,19-dioxa-3,4,18-triazatricyclo[12.3.1.12,5]nonadeca-1(18),2,4,14,16-pentaen-6-ol] |
